pIC50: −log10 of the molar value.
Tests used:
Endothelin-1 receptor = target: T1, Endothelin-1 receptor (Homo sapiens, UniProt P25101); test: In vitro binding was measured by the displacement of [125I]ET1 from membranes prepared from MEL cells transfected with cloned human ETA receptors; assay type: cell membranes
T1 sequence (P25101 whole entry): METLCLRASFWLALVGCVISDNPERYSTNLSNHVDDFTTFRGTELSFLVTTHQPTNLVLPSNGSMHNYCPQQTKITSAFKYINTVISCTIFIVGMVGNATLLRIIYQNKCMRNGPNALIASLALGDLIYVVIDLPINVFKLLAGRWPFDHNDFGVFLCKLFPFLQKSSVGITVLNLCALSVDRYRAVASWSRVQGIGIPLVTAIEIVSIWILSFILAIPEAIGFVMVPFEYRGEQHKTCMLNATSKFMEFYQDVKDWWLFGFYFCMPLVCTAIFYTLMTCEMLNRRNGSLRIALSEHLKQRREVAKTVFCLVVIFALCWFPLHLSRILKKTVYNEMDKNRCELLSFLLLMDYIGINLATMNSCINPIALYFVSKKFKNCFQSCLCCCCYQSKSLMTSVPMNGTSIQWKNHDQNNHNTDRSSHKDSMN

Rattus norvegicus [1] = test: In vivo mean dose ratio (MDR) activity against the pressor response induced by big ET-1 in alderley park rats at 1 hr after (1 mg/kg) oral administration; assay type: functional
Rattus norvegicus [2] = test: In vivo mean dose ratio(MDR) activity against the pressor response induced by big ET-1 in alderley park rats at 4 hr after (2.5 mg/kg) oral administration; assay type: functional
Rattus norvegicus [3] = test: In vivo mean dose ratio(MDR) activity against the pressor response induced by big ET-1 in alderley park rats at 30 min after (2.5 mg/kg) oral administration; assay type: functional
Rattus norvegicus [4] = test: In vivo mean dose ratio(MDR) activity against the pressor response induced by big ET-1 in alderley park rats at 2 hr after (2.5 mg/kg) oral administration; assay type: functional

Row | Structure (SMILES) | pIC50 (Endothelin-1 receptor) | MDR (Rattus norvegicus [1]) | further results
1 | CCCCCNC(=O)c1cccc(S(=O)(=O)Nc2ncc(Br)nc2OC)c1-c1ccc(CC(C)C)cc1 | 6.70 | – | –
2 | COc1nc(C)cnc1NS(=O)(=O)c1cccc(C(N)=O)c1-c1ccc(CC(C)C)cc1 | 9.00 | 2.4 | –
3 | COc1nc(C)cnc1NS(=O)(=O)c1cccc(C(=O)N(C)C)c1-c1ccc(CC(C)C)cc1 | 8.60 | 1.6 | –
4 | COCCNC(=O)c1cccc(S(=O)(=O)Nc2ncc(C)nc2OC)c1-c1ccc(CC(C)C)cc1 | 9.30 | 3.2 | –
5 | COc1nc(Br)cnc1NS(=O)(=O)c1cccc(C(N)=O)c1-c1ccc(CC(C)C)cc1 | 9.10 | – | –
6 | COc1nc(Br)cnc1NS(=O)(=O)c1ccccc1-c1ccccc1 | 7.50 | – | –
7 | COc1nc(Br)cnc1NS(=O)(=O)c1cccc(C(N)=O)c1-c1ccccc1 | 7.40 | – | –
8 | COc1nc(Br)cnc1NS(=O)(=O)c1ccccc1-c1ccc(CC(C)C)cc1 | 7.40 | – | –
9 | CNC(=O)c1cccc(S(=O)(=O)Nc2ncc(Br)nc2OC)c1-c1ccccc1 | 7.40 | – | –
10 | CNC(=O)c1cccc(S(=O)(=O)Nc2ncc(C)nc2OC)c1-c1ccc(CC(C)C)cc1 | 9.30 | 3.2 | Oral activity (Rattus norvegicus [2]): 4; Oral activity (Rattus norvegicus [3]): 6.2; Oral activity (Rattus norvegicus [4]): 3.3
11 | COCCNC(=O)c1cccc(S(=O)(=O)Nc2ncc(Br)nc2OC)c1-c1ccc(CC(C)C)cc1 | 8.80 | 2.1 | –
12 | COc1nc(Br)cnc1NS(=O)(=O)c1cccc(C(=O)N(C)C)c1-c1ccc(CC(C)C)cc1 | 9.00 | – | –
13 | CCCCCNC(=O)c1cccc(S(=O)(=O)Nc2ncc(Br)nc2OC)c1-c1ccccc1 | 8.40 | – | –
14 | COc1nc(C)cnc1NS(=O)(=O)c1cccc(C(=O)NCCO)c1-c1ccc(CC(C)C)cc1 | 9.20 | 4.2 | –
15 | CNC(=O)c1cccc(S(=O)(=O)Nc2ncc(Br)nc2OC)c1-c1ccc(CC(C)C)cc1 | 8.90 | 2.7 | –

— ChEMBL document CHEMBL1130440, “N-Methyl-2-[4-(2-methylpropyl)phenyl]-3-(3-methoxy-5-methylpyrazin-2-ylsulfamoyl)benzamide; one of a class of novel benzenesulphonamides which are orally-active, ETA-selective endothelin antagonists” (Bioorg Med Chem Lett, 1997)
